# Legend:
# Haspin = Haspin (Homo sapiens, UniProt Q8TF76); assay: recombinant kinase panel (IMAP or mobility shift assay), percent inhibition at […] TG693; assay type: biochemical; conditions: read-out: % inhibition at 1 μM
# MAPKAPK3 = MAPKAPK3 (Homo sapiens, UniProt Q16644); assay: biochemical
# Method in brief: (§1)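 Human kinases phosphorylating kinase-specific synthetic peptides, assayed by mobility shift (MSA) or IMAP fluorescence polarization, in 20 mM HEPES pH 7.5, 0.01% Triton X-100, 2 mM DTT with substrate/ATP-metal. Reactions ran 1 or 5 h at room temperature; activity = P/(P + S) from product and substrate peak heights.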
# PDGFRβ = target: T1, PDGFRβ (Homo sapiens, UniProt P09619); assay: biochemical
# T1 construct: gene PDGFRB
# T1 sequence (P09619 whole entry): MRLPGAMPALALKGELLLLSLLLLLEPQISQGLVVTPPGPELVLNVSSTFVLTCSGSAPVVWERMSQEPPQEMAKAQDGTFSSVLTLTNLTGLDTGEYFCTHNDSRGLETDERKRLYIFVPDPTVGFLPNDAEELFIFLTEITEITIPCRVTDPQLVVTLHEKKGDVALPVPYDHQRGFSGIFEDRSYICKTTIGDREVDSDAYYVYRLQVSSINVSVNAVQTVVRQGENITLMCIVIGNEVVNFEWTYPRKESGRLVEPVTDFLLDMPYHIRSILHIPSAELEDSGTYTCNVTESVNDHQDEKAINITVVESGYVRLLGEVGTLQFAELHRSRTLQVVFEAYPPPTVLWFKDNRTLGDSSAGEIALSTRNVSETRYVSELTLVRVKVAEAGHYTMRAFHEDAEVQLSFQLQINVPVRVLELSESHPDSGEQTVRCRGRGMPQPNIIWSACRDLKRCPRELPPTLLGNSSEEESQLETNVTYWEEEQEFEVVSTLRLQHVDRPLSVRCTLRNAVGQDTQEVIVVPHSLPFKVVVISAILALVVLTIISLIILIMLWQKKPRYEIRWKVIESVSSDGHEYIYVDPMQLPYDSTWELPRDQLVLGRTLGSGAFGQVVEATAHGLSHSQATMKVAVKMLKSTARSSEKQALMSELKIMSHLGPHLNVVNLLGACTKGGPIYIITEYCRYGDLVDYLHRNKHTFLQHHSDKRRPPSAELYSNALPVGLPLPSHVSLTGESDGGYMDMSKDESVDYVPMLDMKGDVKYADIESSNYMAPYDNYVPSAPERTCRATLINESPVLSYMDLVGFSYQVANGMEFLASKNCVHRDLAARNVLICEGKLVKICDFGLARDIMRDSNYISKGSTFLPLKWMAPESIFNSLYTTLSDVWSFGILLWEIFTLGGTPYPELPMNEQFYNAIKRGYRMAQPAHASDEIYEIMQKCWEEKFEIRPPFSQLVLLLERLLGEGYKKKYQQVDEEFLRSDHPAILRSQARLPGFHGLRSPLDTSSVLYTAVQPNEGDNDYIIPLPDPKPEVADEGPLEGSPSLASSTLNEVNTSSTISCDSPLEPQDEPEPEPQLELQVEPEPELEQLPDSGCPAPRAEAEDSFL
# Method in brief: as §1
# DDR1 = DDR1 (Homo sapiens, UniProt Q08345); assay: biochemical
# DDR1, sequence (Q08345 whole entry): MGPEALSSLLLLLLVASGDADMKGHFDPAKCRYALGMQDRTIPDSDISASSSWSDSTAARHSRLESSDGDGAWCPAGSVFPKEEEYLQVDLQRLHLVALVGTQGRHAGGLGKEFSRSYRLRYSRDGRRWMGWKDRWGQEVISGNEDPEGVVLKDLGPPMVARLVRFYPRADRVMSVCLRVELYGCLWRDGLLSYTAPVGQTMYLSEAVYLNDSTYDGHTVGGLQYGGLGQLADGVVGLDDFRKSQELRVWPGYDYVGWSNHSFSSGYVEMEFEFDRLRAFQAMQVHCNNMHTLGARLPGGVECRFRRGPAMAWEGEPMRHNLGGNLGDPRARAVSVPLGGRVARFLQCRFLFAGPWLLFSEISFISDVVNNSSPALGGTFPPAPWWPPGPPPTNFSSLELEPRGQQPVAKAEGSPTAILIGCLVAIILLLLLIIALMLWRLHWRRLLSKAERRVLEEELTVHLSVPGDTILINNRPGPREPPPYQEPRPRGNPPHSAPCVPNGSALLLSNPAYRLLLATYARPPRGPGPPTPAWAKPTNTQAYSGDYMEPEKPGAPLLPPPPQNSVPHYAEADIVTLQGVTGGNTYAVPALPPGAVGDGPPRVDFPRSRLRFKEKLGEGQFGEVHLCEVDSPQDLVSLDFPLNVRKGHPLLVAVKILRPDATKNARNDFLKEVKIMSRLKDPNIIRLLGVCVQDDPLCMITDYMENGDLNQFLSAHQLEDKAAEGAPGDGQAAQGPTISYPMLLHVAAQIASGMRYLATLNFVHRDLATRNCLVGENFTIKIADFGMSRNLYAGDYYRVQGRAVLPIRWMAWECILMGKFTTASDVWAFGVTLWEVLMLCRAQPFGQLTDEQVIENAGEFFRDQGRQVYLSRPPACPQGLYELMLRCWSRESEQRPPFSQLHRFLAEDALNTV
# Method in brief: as §1
# PAK6 = PAK6 (Homo sapiens, UniProt Q9NQU5); assay: biochemical
# PAK6, sequence (Q9NQU5 whole entry): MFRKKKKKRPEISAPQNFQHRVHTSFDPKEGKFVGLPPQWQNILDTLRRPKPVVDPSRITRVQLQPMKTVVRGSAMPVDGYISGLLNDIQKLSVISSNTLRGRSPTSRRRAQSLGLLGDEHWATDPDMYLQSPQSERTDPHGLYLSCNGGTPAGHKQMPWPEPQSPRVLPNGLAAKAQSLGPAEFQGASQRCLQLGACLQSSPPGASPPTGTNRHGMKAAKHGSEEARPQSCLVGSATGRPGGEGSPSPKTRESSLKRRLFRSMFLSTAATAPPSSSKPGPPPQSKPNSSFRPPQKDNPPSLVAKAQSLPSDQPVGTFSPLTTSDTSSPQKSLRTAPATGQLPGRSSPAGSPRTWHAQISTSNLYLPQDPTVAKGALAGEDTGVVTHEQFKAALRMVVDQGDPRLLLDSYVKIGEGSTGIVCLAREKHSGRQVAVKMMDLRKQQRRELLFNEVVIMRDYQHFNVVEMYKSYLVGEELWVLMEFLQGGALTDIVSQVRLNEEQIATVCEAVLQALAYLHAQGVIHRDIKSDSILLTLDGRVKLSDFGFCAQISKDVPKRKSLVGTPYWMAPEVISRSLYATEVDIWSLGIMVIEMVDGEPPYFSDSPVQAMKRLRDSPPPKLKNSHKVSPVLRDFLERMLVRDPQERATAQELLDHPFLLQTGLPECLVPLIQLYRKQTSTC
# Method in brief: as §1
# NEK2 = NEK2 (Homo sapiens, UniProt P51955); assay: biochemical
# NEK2, sequence (P51955 whole entry): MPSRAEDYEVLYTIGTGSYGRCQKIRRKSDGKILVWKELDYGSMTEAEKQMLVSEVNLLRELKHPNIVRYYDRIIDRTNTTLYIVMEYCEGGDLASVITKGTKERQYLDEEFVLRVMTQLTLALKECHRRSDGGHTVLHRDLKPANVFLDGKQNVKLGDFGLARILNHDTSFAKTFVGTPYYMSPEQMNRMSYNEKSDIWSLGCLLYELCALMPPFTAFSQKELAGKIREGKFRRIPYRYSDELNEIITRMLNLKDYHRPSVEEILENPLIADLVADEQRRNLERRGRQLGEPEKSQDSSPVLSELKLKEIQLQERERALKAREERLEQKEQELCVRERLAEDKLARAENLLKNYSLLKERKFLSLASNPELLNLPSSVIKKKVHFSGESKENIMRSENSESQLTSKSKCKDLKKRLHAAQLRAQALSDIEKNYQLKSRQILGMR
# Method in brief: as §1
# PKCθ = target: T2, PKCθ (Homo sapiens, UniProt Q04759); assay: biochemical
# T2 construct: gene PRKCQ
# T2 sequence (Q04759 whole entry): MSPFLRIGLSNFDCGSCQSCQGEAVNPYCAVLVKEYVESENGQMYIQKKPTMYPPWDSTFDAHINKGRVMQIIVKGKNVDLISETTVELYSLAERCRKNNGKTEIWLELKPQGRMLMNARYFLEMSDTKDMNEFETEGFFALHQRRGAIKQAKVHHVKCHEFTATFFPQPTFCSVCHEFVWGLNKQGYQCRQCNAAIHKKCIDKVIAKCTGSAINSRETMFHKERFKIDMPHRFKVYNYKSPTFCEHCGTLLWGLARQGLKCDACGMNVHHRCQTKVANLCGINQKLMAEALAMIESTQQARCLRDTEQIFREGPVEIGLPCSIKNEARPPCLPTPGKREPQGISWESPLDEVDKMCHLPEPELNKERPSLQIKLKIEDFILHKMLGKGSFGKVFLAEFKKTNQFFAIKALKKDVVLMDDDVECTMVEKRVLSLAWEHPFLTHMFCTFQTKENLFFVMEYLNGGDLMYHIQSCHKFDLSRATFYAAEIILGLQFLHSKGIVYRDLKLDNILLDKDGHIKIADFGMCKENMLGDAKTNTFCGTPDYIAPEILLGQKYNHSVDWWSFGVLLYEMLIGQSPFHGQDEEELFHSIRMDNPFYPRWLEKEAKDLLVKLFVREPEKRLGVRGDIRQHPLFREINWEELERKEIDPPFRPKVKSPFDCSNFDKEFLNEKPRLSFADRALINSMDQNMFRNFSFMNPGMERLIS
# Method in brief: as §1
# AurC = target: T3, AurC (Homo sapiens, UniProt Q9UQB9); assay: biochemical
# T3 construct: gene AURKC
# T3 sequence (Q9UQB9 whole entry): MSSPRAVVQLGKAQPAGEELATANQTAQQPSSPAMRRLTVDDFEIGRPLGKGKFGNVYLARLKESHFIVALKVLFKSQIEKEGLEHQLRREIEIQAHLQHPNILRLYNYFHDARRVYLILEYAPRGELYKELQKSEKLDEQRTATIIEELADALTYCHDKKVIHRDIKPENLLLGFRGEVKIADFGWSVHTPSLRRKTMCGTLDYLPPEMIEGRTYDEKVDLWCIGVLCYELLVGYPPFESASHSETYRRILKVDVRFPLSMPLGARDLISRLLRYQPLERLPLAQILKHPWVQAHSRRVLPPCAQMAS
# Method in brief: as §1
# PEK = target: T4, PEK (Homo sapiens, UniProt Q9NZJ5); assay: biochemical
# T4 construct: gene EIF2AK3
# Method in brief: as §1
# PHKG2 = PHKG2 (Homo sapiens, UniProt P15735); assay: biochemical
# PHKG2, sequence (P15735 whole entry): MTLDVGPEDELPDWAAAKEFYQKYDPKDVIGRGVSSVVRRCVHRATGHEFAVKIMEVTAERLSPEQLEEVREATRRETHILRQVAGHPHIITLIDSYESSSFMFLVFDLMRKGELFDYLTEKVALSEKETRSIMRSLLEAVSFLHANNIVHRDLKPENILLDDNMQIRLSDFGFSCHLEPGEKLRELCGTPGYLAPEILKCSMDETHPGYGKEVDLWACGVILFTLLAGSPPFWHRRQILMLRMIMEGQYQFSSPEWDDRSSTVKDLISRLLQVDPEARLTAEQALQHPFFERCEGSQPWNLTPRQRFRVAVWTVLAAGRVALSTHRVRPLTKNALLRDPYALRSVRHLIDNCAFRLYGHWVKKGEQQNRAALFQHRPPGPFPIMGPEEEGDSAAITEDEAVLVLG
# Method in brief: as §1
# MAPKAPK3, sequence (Q16644 whole entry): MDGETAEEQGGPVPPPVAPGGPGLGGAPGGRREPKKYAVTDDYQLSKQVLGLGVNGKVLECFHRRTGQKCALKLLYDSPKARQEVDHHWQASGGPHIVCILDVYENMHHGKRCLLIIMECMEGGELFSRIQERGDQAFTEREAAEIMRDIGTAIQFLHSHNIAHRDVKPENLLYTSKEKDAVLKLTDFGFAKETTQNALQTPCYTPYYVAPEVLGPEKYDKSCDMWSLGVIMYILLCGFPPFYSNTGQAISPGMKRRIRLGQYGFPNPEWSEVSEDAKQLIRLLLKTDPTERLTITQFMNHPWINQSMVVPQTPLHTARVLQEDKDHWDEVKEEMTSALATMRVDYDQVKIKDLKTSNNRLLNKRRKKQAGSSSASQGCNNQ
structure (smiles),measurement,setting,value
"c1cc(-c2ccc3[nH]ncc3c2)ccn1 [TG693, 5-(4-pyridinyl)-1H-indazole]",inhibition at 1 µM,Haspin,> 90%
same,inhibition at 1 µM,MAPKAPK3,-13.1%
same,inhibition at 1 µM,PDGFRβ,3%
same,inhibition at 1 µM,DDR1,-6%
same,inhibition at 1 µM,PAK6,-4.3%
same,inhibition at 1 µM,NEK2,-11.9%
same,inhibition at 1 µM,PKCθ,-12.6%
same,inhibition at 1 µM,AurC,2.5%
same,inhibition at 1 µM,PEK,5%
same,inhibition at 1 µM,PHKG2,6.3%

# From PMC5448077, “Development of an orally available inhibitor of CLK1 for skipping a mutated dystrophin exon in Duchenne muscular dystrophy” (Scientific Reports, 2017)
